What was measured:
mouse GnRH receptor = molecular target: T1, mouse GnRH receptor (Mus musculus, UniProt Q01776); assay: Radioligand binding, 125I-GnRH-A, 293 cells expressing mouse GnRH receptors; settings: for inhibition at 10 µM: read-out: % Inhib. @ 10 uM mGnRH; for remaining activity at 10 µM: 1 h, substrate remaining, 10 uM compound, closer to zero = closer to 100% inhibition, read-out: S%R 10 uM mGnRHR
T1 construct: expressed in transfected cells; host or cells: 293 cells
T1 sequence (Q01776 1-327): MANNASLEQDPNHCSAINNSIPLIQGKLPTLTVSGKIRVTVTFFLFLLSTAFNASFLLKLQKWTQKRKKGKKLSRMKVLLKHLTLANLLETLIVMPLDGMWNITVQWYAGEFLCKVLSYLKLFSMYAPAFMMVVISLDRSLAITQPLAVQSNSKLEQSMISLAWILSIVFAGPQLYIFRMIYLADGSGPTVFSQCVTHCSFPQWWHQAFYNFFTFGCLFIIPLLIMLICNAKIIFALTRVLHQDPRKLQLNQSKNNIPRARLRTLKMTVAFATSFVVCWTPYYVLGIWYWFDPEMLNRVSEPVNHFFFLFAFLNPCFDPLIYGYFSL
Method: All compounds were diluted in 1% DMSO (final assay concentration) in binding assay buffer. […] Reactions were terminated by rapid filtration onto 96-well Packard GF/C filters soaked in 0.1% polyethyleneimine. Filters were washed three times with PBS buffer, dried and counted on a Packard Topcount by liquid scintillation counting.
Assay conditions were identical for assessing compound activities at other species. […] IC50 values for control peptides and test compounds were calculated utilizing GraphPad Prism™ software.
The reaction mixture was vortexed and incubated for 1 min at room temperature. After one min, the mixture was vortexed and allowed to incubate for an additional minute. 2 ml of 0.5 M acetic acid/1% BSA was added to the reaction tube and the mixture was added to a C18 Sep-Pak cartridge. The cartridge was washed with subsequent washes of 5 ml H2O and 5 ml 0.5M acetic acid and then eluted with 5×1 ml of 60% CH3CN/40% 0.5M acetic acid. The eluate was diluted with 3× volume of HPLC buffer A (0.1% TFA in H2O) and loaded onto a C18 column. […] The radioactive fractions (750 ed/fraction) are collected into clean polypropylene tubes containing 100 μl of 10% BSA. Fractions were assessed for biological activity by radioligand binding.

human GnRH receptor = molecular target: T2, human GnRH receptor (Homo sapiens, UniProt P30968); assay: Radioligand binding, 125I-GnRH-A displacement, membranes of HEK 293 cells with human GnRH receptor
T2 construct: expressed in transfected cells; host or cells: HEK 293 (hGnRH-R/293, from Dr. Stuart Sealfon)
T2 sequence (P30968 1-328): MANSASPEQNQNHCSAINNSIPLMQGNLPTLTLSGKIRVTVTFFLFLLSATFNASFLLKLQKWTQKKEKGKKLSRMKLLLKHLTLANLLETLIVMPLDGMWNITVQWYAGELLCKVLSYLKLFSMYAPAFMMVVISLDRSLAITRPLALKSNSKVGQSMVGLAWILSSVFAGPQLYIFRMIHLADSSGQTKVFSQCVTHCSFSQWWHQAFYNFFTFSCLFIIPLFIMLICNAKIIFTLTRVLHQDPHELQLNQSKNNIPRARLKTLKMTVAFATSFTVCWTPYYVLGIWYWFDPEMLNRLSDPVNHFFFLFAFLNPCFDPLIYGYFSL
Outline: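 After filtration and PBS washes, bound radioactivity was counted by scintillation and IC50 derived. Identical conditions applied for non-human receptors.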

SMILES	inhibition at 10 µM (mouse GnRH receptor) [%]	remaining activity at 10 µM (mouse GnRH receptor) [%]	also measured
Cc1cc2c(cc1Cc1ccc(C(=O)NC3CCCCC3Nc3nccc(NCC4CCCO4)n3)o1)C(C)(C)CCC2(C)C (centres unmarked) [Compound 466]		30	
Cc1cc2c(cc1Cc1ccc(C(=O)NCCc3c[nH]c4ccc(O)cc34)o1)C(C)(C)CCC2(C)C [drawing 1526]	84		
Cc1cc2c(cc1Cc1ccc(C(=O)NC(C)c3ccc([N+](=O)[O-])cc3)o1)C(C)(C)CCC2(C)C (centres unmarked) [Compound 639]		57	
CCN1CC(N(Cc2ccccc2C#N)C(=O)c2ccc(Cc3cc4c(cc3C)C(C)(C)CCC4(C)C)o2)CN1CC [drawing 1565]	101		
Cc1cc2c(cc1Cc1ccc(C(=O)N(CCCN3CCN(C)CC3)Cc3cc(C)n(-c4cccc(C(F)(F)F)c4)c3C)o1)C(C)(C)CCC2(C)C [Compound 567]		-1	
Cc1cc2c(cc1Cc1ccc(C(=O)N(CC#N)Cc3ccccc3)o1)C(C)(C)CCC2(C)C [Compound 559]		26	
Cc1cc2c(cc1Cc1ccc(C(=O)N(CCCN(C)C)CCCN(C)C)o1)C(C)(C)CCC2(C)C [drawing 1254]	71		
Cc1cc2c(cc1Cc1ccc(C(=O)N(Cc3cccnc3)Cc3ccccc3F)o1)C(C)(C)CCC2(C)C [drawing 1287]	95		
COc1cc2c(cc1OC)C(c1ccccc1)N(C(=O)c1ccc(Cc3cc4c(cc3C)C(C)(C)CCC4(C)C)o1)CC2 (centres unmarked)	29		
Cc1cc2c(cc1Cc1ccc(C(=O)Nc3nc(N(C)C)nc4nc[nH]c34)o1)C(C)(C)CCC2(C)C [Compound 517]		34	
Cc1cc2c(cc1Cc1ccc(C(=O)NC(CO)Cc3ccccc3)o1)C(C)(C)CCC2(C)C (centres unmarked) [drawing 1137]			% Inhib. @ 1 uM hGnRH (human GnRH receptor; 1 uM): 17%; Repeats @ 1 uM hGnRH (human GnRH receptor; repeat of % Inhib. at 1 uM): 20

The next lines start with results.

inhibition at 10 µM (mouse GnRH receptor) [%]	remaining activity at 10 µM (mouse GnRH receptor) [%]	SMILES	also measured
37		Cc1cc2c(cc1Cc1ccc(C(=O)NC3C4CC5CC6CC(C5)C643)o1)C(C)(C)CCC2(C)C (centres unmarked)	
	-2	Cc1cc2c(cc1Cc1ccc(C(=O)N3CCCC3C)o1)C(C)(C)CCC2(C)C (centres unmarked) [Compound 659]	
95		C=CCN1CCN(C(=O)c2ccc(Cc3cc4c(cc3C)C(C)(C)CCC4(C)C)o2)CC1	
	30	CC(=O)N1CCN(C(=O)c2ccc(Cc3cc4c(cc3C)C(C)(C)CCC4(C)C)o2)CC1 [Compound 577]	
72		Cc1cc2c(cc1Cc1ccc(C(=O)N3CCC4(CC3)C(=O)NCN4c3ccccc3)o1)C(C)(C)CCC2(C)C [drawing 1511]	
53		Cc1cc2c(cc1Cc1ccc(C(=O)N3CCCC3CNc3ccccc3)o1)C(C)(C)CCC2(C)C (centres unmarked)	
72		Cc1cc2c(cc1Cc1ccc(C(=O)NC(C)(C)C)o1)C(C)(C)CCC2(C)C [drawing 1450]	
13		Cc1cc2c(cc1Cc1ccc(C(=O)NC3CCCCC3C3CCCCC3)o1)C(C)(C)CCC2(C)C (centres unmarked)	
	11	Cc1cc2c(cc1Cc1ccc(C(=O)NCCN3CCCC3)o1)C(C)(C)CCC2(C)C [Compound 515]	
71		CC(=O)N1CCN(C(=O)c2ccc(Cc3cc4c(cc3C)C(C)(C)CCC4(C)C)o2)CC1 [drawing 1424]	
26		Cc1cc2c(cc1Cc1ccc(C(=O)NCC(F)(F)F)o1)C(C)(C)CCC2(C)C [drawing 1271]	
77		CC[C@H](C)C(CO)NC(=O)c1ccc(Cc2cc3c(cc2C)C(C)(C)CCC3(C)C)o1 (some centres unmarked) [drawing 1581]	
	-9	Cc1cc2c(cc1Cc1ccc(C(=O)NCCCc3ccccc3)o1)C(C)(C)CCC2(C)C [Compound 469]	
94		Cc1cc2c(cc1Cc1ccc(C(=O)N3CCCC4CCCCC43)o1)C(C)(C)CCC2(C)C (centres unmarked)	

Source: US7101878B1 (Agouron Pharmaceuticals, Inc., priority 1998, dated 2006)
